pIC50: −log10 of the molar value.

Series [1] concerns the target Substance-P receptor (Homo sapiens, UniProt P25103). In words: Affinity towards hNK1 receptor by displacement of [125I]- Substance P from hNK1 receptor expressed in CHO cells. In kind it is cell-based.
Series [2] in a line: Plasma elimination half-life was determined. It is filed as ADME, organism-based. The settings on record: rat.
The nature of series [3]: Low affinity binding to calcium channel.
Series [4] in a line: Steady state volume of distribution dosing at 3 mg/kg iv. The settings on record: rat, in vivo. In kind it is ADME, organism-based. On the set-up: dose 3 mg/kg, route intravenous.
The nature of series [5]: Maximal plasma drug concentration was determined. It is filed as ADME, organism-based. The conditions noted are these: rat.
In series [6] the target is T1, Neuromedin-K receptor (Homo sapiens, UniProt P29371).
T1 sequence (P29371 whole entry): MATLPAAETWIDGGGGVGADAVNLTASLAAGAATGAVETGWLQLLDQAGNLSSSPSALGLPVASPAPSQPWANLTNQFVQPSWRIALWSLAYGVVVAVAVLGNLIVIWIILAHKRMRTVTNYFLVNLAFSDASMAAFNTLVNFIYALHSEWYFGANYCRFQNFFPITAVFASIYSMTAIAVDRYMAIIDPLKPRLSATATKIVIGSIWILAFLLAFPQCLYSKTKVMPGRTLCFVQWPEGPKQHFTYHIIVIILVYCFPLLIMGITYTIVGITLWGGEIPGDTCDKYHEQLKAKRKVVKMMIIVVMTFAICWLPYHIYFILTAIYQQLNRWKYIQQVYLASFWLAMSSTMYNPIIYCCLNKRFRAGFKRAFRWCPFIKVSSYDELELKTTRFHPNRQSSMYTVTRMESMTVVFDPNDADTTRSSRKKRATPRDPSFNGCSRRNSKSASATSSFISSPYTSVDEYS
The experiment in a line: Binding affinity for Tachykinin receptor 3.

Series [7] is described as follows: Oral bioavailability. In kind it is ADME, organism-based. The conditions noted are these: rat, in vivo.
Series [8] is described as follows: Tmax was determined. In kind it is ADME, organism-based. The conditions noted are these: rat, in vivo.
Series [9] addresses T2, Substance-K receptor (Homo sapiens, UniProt P21452).
T2 sequence (P21452 whole entry): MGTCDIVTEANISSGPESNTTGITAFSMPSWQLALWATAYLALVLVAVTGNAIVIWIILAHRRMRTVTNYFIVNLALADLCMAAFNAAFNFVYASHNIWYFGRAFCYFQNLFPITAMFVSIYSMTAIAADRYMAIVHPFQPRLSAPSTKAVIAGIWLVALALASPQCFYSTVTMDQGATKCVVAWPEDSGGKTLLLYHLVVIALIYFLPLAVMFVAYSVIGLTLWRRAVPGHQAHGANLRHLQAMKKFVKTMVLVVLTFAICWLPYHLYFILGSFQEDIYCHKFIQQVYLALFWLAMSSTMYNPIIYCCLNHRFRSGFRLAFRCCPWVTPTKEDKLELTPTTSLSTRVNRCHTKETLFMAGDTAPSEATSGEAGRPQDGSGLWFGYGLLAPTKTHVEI
The experiment in a line: Binding affinity for Tachykinin receptor 2.

Sequence of Substance-P receptor (P25103 whole entry): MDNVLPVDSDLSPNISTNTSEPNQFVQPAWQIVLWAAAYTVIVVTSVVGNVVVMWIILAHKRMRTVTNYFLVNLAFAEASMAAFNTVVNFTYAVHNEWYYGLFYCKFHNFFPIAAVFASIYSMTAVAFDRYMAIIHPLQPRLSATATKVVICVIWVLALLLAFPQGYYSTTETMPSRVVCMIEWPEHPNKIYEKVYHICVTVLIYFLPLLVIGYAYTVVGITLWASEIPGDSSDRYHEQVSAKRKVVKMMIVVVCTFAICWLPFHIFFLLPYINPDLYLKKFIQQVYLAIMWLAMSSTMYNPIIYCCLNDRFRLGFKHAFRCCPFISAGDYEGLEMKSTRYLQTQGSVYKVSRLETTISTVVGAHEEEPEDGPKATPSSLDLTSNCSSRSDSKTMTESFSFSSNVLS

For orientation: pIC50 means the negative decadic logarithm of the IC50, by convention in mol/L. On to `Cc1cc(COC[C@H](c2ccccc2)N(C)Cc2n[nH]c(=O)[nH]2)cc(C(C)(C)C)c1`, for which the pIC50 in [1] is 9.38. As for `CCCN(Cc1n[nH]c(O)n1)[C@H](COCc1cc(C(F)(F)F)cc(C(F)(F)F)c1)c1ccccc1`, the pIC50 in series [1] is 8.70. In turn, `CN(Cc1nnn(C)n1)[C@H](COCc1cc(C(F)(F)F)cc(C(F)(F)F)c1)c1ccccc1` had a pIC50 in [1] of 7.80.

As to `CN(Cc1n[nH]c(O)n1)[C@H](COCc1cc(Cl)cc(Cl)c1)c1ccccc1`, the pIC50 in [1] is 8.82. In series [1], `CCN(Cc1n[nH]c(O)n1)[C@H](COCc1cc(C(F)(F)F)cc(C(F)(F)F)c1)c1ccccc1` gave a pIC50 of 9.10. As for `CN(Cc1nc[nH]n1)[C@H](COCc1cc(C(F)(F)F)cc(C(F)(F)F)c1)c1ccccc1`, in series [1], the pIC50 was 8.85.

By half-life is commonly meant how long it takes for the measured level to halve. As usually defined, the Vd is a proportionality between amount in the body and measured concentration, not a real space. A lower Vd goes with little distribution into tissue. The Cmax is the highest concentration seen after dosing. By bioavailability is commonly meant dose-corrected exposure relative to a reference, in per cent. A word on the Tmax: it is the time at which the peak concentration occurs. For `CN(Cc1n[nH]c(O)n1)[C@H](COCc1cc(C(F)(F)F)cc(C(F)(F)F)c1)c1ccccc1`, the half-life in series [2] is 48 min. The pIC50 in [3] was below 3.00; in [1], 9.37; in series [6], below 6.00; in series [9], below 6.00. Moreover, the volume of distribution (Vd) in [4] turned out to be 3.5 L/kg. In addition, in series [5], the highest level (Cmax) was 97 ng/mL. Further, the bioavailability in series [7] was 16%. Also, in [8], the Tmax was 30 min.

In [1], `CN(Cc1nn[nH]n1)[C@H](COCc1cc(C(F)(F)F)cc(C(F)(F)F)c1)c1ccccc1` showed a pIC50 of 7.15. On to `FC(F)(F)c1cc(COC[C@@H](NCc2nn[nH]n2)c2ccccc2)cc(C(F)(F)F)c1`, for which, in series [1], the pIC50 was 7.64. On the same count and under the same terms, to `Cn1nnnc1CN[C@H](COCc1cc(C(F)(F)F)cc(C(F)(F)F)c1)c1ccccc1` belongs 8.00; to `Cn1nnc(CN[C@H](COCc2cc(C(F)(F)F)cc(C(F)(F)F)c2)c2ccccc2)n1`, 7.82. Regarding `Cc1cc(Cl)cc(COC[C@H](c2ccccc2)N(C)Cc2n[nH]c(O)n2)c1`, in series [1], the pIC50 is 8.66.

For `O=c1[nH]nc(CN[C@H](COCc2cc(C(F)(F)F)cc(C(F)(F)F)c2)c2ccccc2)[nH]1`, the pIC50 in [1] is 8.62. The same measure, in the same setting: to `FC(F)(F)c1cc(COC[C@@H](NCc2nnc[nH]2)c2ccccc2)cc(C(F)(F)F)c1` belongs 8.30; to `CN(Cc1nnnn1C)[C@H](COCc1cc(C(F)(F)F)cc(C(F)(F)F)c1)c1ccccc1`, 7.89.
